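Cells were grown in 96-well plates and exposed to each compound for 48 hours at five concentrations; endpoints were interpolated linearly between bracketing concentrations, or set to the highest concentration if not reached. At the GI50, growth is halved.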 The source made the active and inactive calls. Rule as the data show it: active = GI50 up to about 1.1 µM and inactive = higher.
Tests used:
Test in all cases: inhibition of tumour cell growth, NCI panel, 48 h
786-0 = tested on: 786-0
A498 = tested on: A498
CAKI-1 = tested on: CAKI-1
COLO 205 = tested on: COLO 205
EKVX = tested on: EKVX
HCC 2998 = tested on: HCC 2998
HCT-116 = tested on: HCT-116
HOP-62 = tested on: HOP-62
KM12 = tested on: KM12
M14 = tested on: M14
MDA-MB-231 = tested on: MDA-MB-231
NCI-H460 = tested on: NCI-H460
OVCAR-3 = tested on: OVCAR-3
OVCAR-4 = tested on: OVCAR-4
OVCAR-5 = tested on: OVCAR-5
SF-268 = tested on: SF-268
SF-295 = tested on: SF-295
SK-MEL-2 = tested on: SK-MEL-2
SNB-19 = tested on: SNB-19
UO-31 = tested on: UO-31

Structure (SMILES)	GI50 (786-0)	GI50 (A498)	GI50 (CAKI-1)	GI50 (COLO 205)	GI50 (EKVX)	GI50 (HCC 2998)	GI50 (HCT-116)	GI50 (HOP-62)	GI50 (KM12)	GI50 (M14)	GI50 (MDA-MB-231)	GI50 (NCI-H460)	GI50 (OVCAR-3)	GI50 (OVCAR-4)	GI50 (OVCAR-5)	GI50 (SF-268)	GI50 (SF-295)	GI50 (SK-MEL-2)	GI50 (SNB-19)	GI50 (UO-31)
N#CC[N+]1(Cc2ccccn2)CCCC1.O=S(=O)([O-])c1ccccc1	> 100 µM (inactive)	> 100 µM (inactive)	> 100 µM (inactive)	> 100 µM (inactive)	> 100 µM (inactive)	> 100 µM (inactive)	> 100 µM (inactive)	> 100 µM (inactive)	> 100 µM (inactive)	> 100 µM (inactive)	> 100 µM (inactive)	> 100 µM (inactive)	> 100 µM (inactive)	> 100 µM (inactive)	> 100 µM (inactive)	> 100 µM (inactive)	> 100 µM (inactive)	> 100 µM (inactive)	> 100 µM (inactive)	> 100 µM (inactive)
Cc1ncc(CO)c(CN)c1O	> 100 µM (inactive)	> 100 µM (inactive)	> 100 µM (inactive)	> 100 µM (inactive)	> 100 µM (inactive)	> 100 µM (inactive)	> 100 µM (inactive)	> 100 µM (inactive)	> 100 µM (inactive)	> 100 µM (inactive)	> 100 µM (inactive)	> 100 µM (inactive)	> 100 µM (inactive)	> 100 µM (inactive)	> 100 µM (inactive)	> 100 µM (inactive)	> 100 µM (inactive)	> 100 µM (inactive)	> 100 µM (inactive)	> 100 µM (inactive)
O=c1[nH]nc(Cc2ccc(Cl)cc2)n1O	> 100 µM (inactive)	> 100 µM (inactive)	> 100 µM (inactive)	> 100 µM (inactive)	> 100 µM (inactive)	> 100 µM (inactive)	> 100 µM (inactive)	> 100 µM (inactive)	> 100 µM (inactive)	> 100 µM (inactive)	> 100 µM (inactive)	> 100 µM (inactive)	> 100 µM (inactive)	> 100 µM (inactive)	> 100 µM (inactive)	> 100 µM (inactive)	> 100 µM (inactive)	> 100 µM (inactive)	> 100 µM (inactive)	> 100 µM (inactive)
[O-]c1c[n+](CCCC[n+]2cc([O-])on2)no1	> 100 µM (inactive)	> 100 µM (inactive)	> 100 µM (inactive)	> 100 µM (inactive)	> 100 µM (inactive)	> 100 µM (inactive)	> 100 µM (inactive)	> 100 µM (inactive)	> 100 µM (inactive)	> 100 µM (inactive)	> 100 µM (inactive)	> 100 µM (inactive)	> 100 µM (inactive)	> 100 µM (inactive)	> 100 µM (inactive)	> 100 µM (inactive)	> 100 µM (inactive)	> 100 µM (inactive)	> 100 µM (inactive)	> 100 µM (inactive)
COC(=O)/C=C\C(C#N)(C#N)/N=C/c1ccc(C)s1	1.69 µM (inactive)	20.3 µM (inactive)	1.94 µM (inactive)	1.43 µM (inactive)	5.31 µM (inactive)	17.7 µM (inactive)	1.32 µM (inactive)	14.9 µM (inactive)	13.1 µM (inactive)	1.85 µM (inactive)	5.61 µM (inactive)	19.3 µM (inactive)	3.94 µM (inactive)	3.78 µM (inactive)	6.53 µM (inactive)	6.82 µM (inactive)	17.8 µM (inactive)	5.48 µM (inactive)	18.7 µM (inactive)	1.67 µM (inactive)
Cc1nc2ccc(S(=O)(=O)Nc3ccccn3)cc2c(=O)n1NS(=O)(=O)c1ccccn1	> 100 µM (inactive)	> 100 µM (inactive)	> 100 µM (inactive)	> 100 µM (inactive)	> 100 µM (inactive)	> 100 µM (inactive)	> 100 µM (inactive)	> 100 µM (inactive)	> 100 µM (inactive)	> 100 µM (inactive)	> 100 µM (inactive)	> 100 µM (inactive)	> 100 µM (inactive)	> 100 µM (inactive)	> 100 µM (inactive)	> 100 µM (inactive)	> 100 µM (inactive)	> 100 µM (inactive)	> 100 µM (inactive)	> 100 µM (inactive)
Cc1sc(C)c2c1C(=O)CC2N (stereo not given)	7.98 µM (inactive)	> 100 µM (inactive)	15.1 µM (inactive)	17.1 µM (inactive)	44.9 µM (inactive)	19.3 µM (inactive)	14.5 µM (inactive)	> 85.5 µM (inactive)	16.4 µM (inactive)	14.1 µM (inactive)	22.7 µM (inactive)	29.1 µM (inactive)	17.5 µM (inactive)	28 µM (inactive)	> 100 µM (inactive)	> 40.9 µM (inactive)	> 100 µM (inactive)	> 100 µM (inactive)	> 94.4 µM (inactive)	15.6 µM (inactive)
COC(=O)c1ccccc1CC1Cc2ccc3c(c2C1)CCC3 (stereo not given)	33.3 µM (inactive)	> 100 µM (inactive)	45.5 µM (inactive)	17.4 µM (inactive)	17.3 µM (inactive)	23.8 µM (inactive)	23.3 µM (inactive)	38.9 µM (inactive)	30.1 µM (inactive)	33.9 µM (inactive)	19.5 µM (inactive)	30.1 µM (inactive)	31.3 µM (inactive)	24.2 µM (inactive)	29.5 µM (inactive)	41.3 µM (inactive)	35.2 µM (inactive)	15.6 µM (inactive)	48.6 µM (inactive)	37 µM (inactive)
CCOP(=O)(OCC)C(Nc1cccc(F)c1)c1ccc(N(C)C)cc1 (stereo not given)	> 10 µM (inactive)	> 100 µM (inactive)	> 100 µM (inactive)	97.1 µM (inactive)	99.1 µM (inactive)	64 µM (inactive)	48.5 µM (inactive)	> 100 µM (inactive)	> 100 µM (inactive)	74.3 µM (inactive)	78.2 µM (inactive)	63 µM (inactive)	> 100 µM (inactive)	> 100 µM (inactive)	> 100 µM (inactive)	> 100 µM (inactive)	57 µM (inactive)	> 100 µM (inactive)	> 100 µM (inactive)	> 100 µM (inactive)
CCCC(CC)c1cc(O)c(O)cc1C(CC)CCC (stereo not given)	> 10 µM (inactive)	> 10 µM (inactive)	> 10 µM (inactive)	> 10 µM (inactive)	> 10 µM (inactive)	> 10 µM (inactive)	> 10 µM (inactive)	> 10 µM (inactive)	> 10 µM (inactive)	> 10 µM (inactive)	> 10 µM (inactive)	> 10 µM (inactive)	> 10 µM (inactive)	> 10 µM (inactive)	> 10 µM (inactive)	> 10 µM (inactive)	> 10 µM (inactive)	> 10 µM (inactive)	> 10 µM (inactive)	> 10 µM (inactive)
OC[C@]1(n2nc3ccccc3n2)OC[C@@H]1c1ccccc1	34.8 µM (inactive)	60.5 µM (inactive)	27.2 µM (inactive)	55.5 µM (inactive)	> 100 µM (inactive)	> 100 µM (inactive)	30.4 µM (inactive)	39.3 µM (inactive)	45.6 µM (inactive)	90.6 µM (inactive)	74.3 µM (inactive)	76.2 µM (inactive)	21.7 µM (inactive)	16.9 µM (inactive)	91.4 µM (inactive)	30.8 µM (inactive)	83.4 µM (inactive)	34 µM (inactive)	> 100 µM (inactive)	95.3 µM (inactive)
CCC1CN2CCc3c([nH]c4ccccc34)[C@@](C(=O)OC)(c3cc4c(cc3OC)N(C)C3C(O)(C(=O)OC)C(C(=O)OC)C5(CC)C=CCN6CCC43C65)C[C@@H](C2)[C@@H]1C(C)(C)C (stereo not given in full)	0.439 µM (active)	0.306 µM (active)	4.27 µM (inactive)	0.372 µM (active)	1.98 µM (inactive)	0.373 µM (active)	0.312 µM (active)	0.257 µM (active)	0.419 µM (active)	0.401 µM (active)	0.407 µM (active)	0.393 µM (active)	0.316 µM (active)	3.15 µM (inactive)	2.68 µM (inactive)	0.615 µM (active)	0.226 µM (active)	0.41 µM (active)	0.337 µM (active)	1.47 µM (inactive)
COc1ccc([C@@]23Oc4cc(OC)cc(OC)c4[C@]2(O)[C@H](O)[C@H](C(N)=O)[C@H]3c2ccccc2)cc1 [DIDESMETHYLROCAGLAMIDE]	< 0.01 µM (active)	< 0.01 µM (active)	< 0.0164 µM (active)	< 0.01 µM (active)	< 0.0106 µM (active)	< 0.01 µM (active)	< 0.01 µM (active)	< 0.01 µM (active)	< 0.01 µM (active)	< 0.01 µM (active)	< 0.0108 µM (active)	< 0.01 µM (active)	< 0.01 µM (active)	< 0.0126 µM (active)	0.0102 µM (active)	< 0.01 µM (active)	< 0.01 µM (active)	< 0.0106 µM (active)	< 0.01 µM (active)	< 0.0161 µM (active)
